Legend:
[1] = pH of the prepared solutions; type: physicochemical
Protocol: (§1) Specifically, 150 g of BA was added, and HH was added at ratios shown in Table 1 after addition of water (distilled water), followed by reaction at a temperature of each reaction solution of 60° C. The termination time point of the reaction was when the solution became a transparent solution. The degree of precipitation was analyzed one day after the completion of the reaction.
Hydrazine borates (#7 to #11) with different BAE levels were synthesized by varying the amounts of BA and HH. Specifically, BA was added at proportions shown in Table 3 below, and water was added and HH was added, followed by reaction at a temperature of each reaction solution of 60° C. Then, the termination time point of the reaction was when the solution became a transparent solution. The degree of precipitation was analyzed one month after the completion of the reaction.

[2] = 30 wt % BAE; one day after completion of the reaction
Protocol: Hydrazine borates (#1 to #6) were synthesized by varying the amounts of boric acid (BA) and hydrazine hydrate (HH) while fixing the boric acid equivalent (BAE) level to 30 wt %.
as §1

[3] = cited from earlier work
[4] = Test on dilution stability
Protocol: The precipitation or lack thereof over time was visually observed while the tube was shaken every 6 hours, and the results are shown in Table 14.

Reticulitermes speratus = conditions: cited from earlier work
rot fungi = conditions: cited from earlier work
wood-boring insects = conditions: cited from earlier work
Coptotermes formosanus = conditions: cited from earlier work
[5] = reaction solutions of Example 1, 30 wt % BAE
[6] = reaction solutions of Example 2, 40-71 wt % BAE

hydrazine borate [#5]
pH [1, 5]: 6.33

hydrazine borate [#2]
pH [1, 5]: 8.42 | Appearance of the solution / precipitate formation [2]: transparent solutions

N.O=BOB1OB2OB(O)OB(O1)O2 [ammonium pentaborate (APB), ammonium pentaborate]
BAE at room temperature [3]: 10.6 % BAE

hydrazine borate [#6]
pH [1, 5]: 6.59

hydrazine borate [#8]
Precipitation over time ([4]; diluted 1:1 in distilled water, 1 Days): N | Precipitation over time ([4]; diluted 1:1 in distilled water, 3 Days): N | Precipitation over time ([4]; diluted 1:1 in distilled water, 5 Days): N | Precipitation over time ([4]; diluted 1:1 in distilled water, 7 Days): N | Precipitation over time ([4]; diluted 2:1 in distilled water, 1 Days): N | Precipitation over time ([4]; diluted 2:1 in distilled water, 3 Days): N | Precipitation over time ([4]; diluted 2:1 in distilled water, 5 Days): N | Precipitation over time ([4]; diluted 2:1 in distilled water, 7 Days): N | Precipitation over time ([4]; diluted 3:1 in distilled water, 1 Days): N | Precipitation over time ([4]; diluted 3:1 in distilled water, 3 Days): N | Precipitation over time ([4]; diluted 3:1 in distilled water, 5 Days): N | Precipitation over time ([4]; diluted 3:1 in distilled water, 7 Days): N | pH [1, 6]: 8.42

hydrazine borate [#11]
pH [1, 6]: 8.37

hydrazine borate [#3]
pH [1, 5]: 7.45

borate
Toxicity titer (Reticulitermes speratus): < 3.0 kg/m^3 BAE | Toxicity titer (rot fungi): 1.0-1.5 kg/m^3 BAE | Toxicity titer (wood-boring insects): 1.2 kg/m^3 BAE | Toxicity titer (Coptotermes formosanus): 3.0 kg/m^3 BAE

hydrazine borate [#10]
pH [1, 6]: 8.40

hydrazine borate [#7]
pH [1, 6]: 8.45

hydrazine borate [#1]
pH [1, 5]: 9.50 | Appearance of the solution / precipitate formation [2]: transparent solutions

hydrazine borate [#4]
pH [1, 5]: 6.13

hydrazine borate [#9]
pH [1, 6]: 8.41

dilithium octaborate [dilithium octaborate (LOB)]
BAE at room temperature [3]: 24.1 % BAE

O.O.O.O.O=BOB1OB(OB=O)OB2OB([O-])OB([O-])OB(O1)O2.[Na+].[Na+] [disodium octaborate tetrahydrate (DOT), disodium octaborate tetrahydrate]
BAE at room temperature [3]: 11.6 % BAE
